PubChem BioAssay (NCI)
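Cells were grown in 96-well plates and exposed to each compound for 48 hours at five concentrations; endpoints were interpolated linearly between bracketing concentrations, or set to the highest concentration if not reached. At the GI50, growth is halved. TGI is the concentration that stops growth completely.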 Where a SMILES comes first, the peptide text is derived from it.

Tests used:
Test in all cases: NCI-60 cell line screen, 48 h
BT-549 breast = tested on: BT-549 breast
OVCAR-5 ovarian = tested on: OVCAR-5 ovarian
RPMI-8226 leukemia = tested on: RPMI-8226 leukemia
UACC-62 melanoma = tested on: UACC-62 melanoma
MOLT-4 leukemia = tested on: MOLT-4 leukemia
KM12 colon = tested on: KM12 colon
SF-268 CNS = tested on: SF-268 CNS
HOP-92 NSCLC = tested on: HOP-92 NSCLC
TK-10 renal = tested on: TK-10 renal
MDA-N = tested on: MDA-N

Compound | TGI (BT-549 breast) [µM] | TGI (OVCAR-5 ovarian) [µM] | TGI (RPMI-8226 leukemia) [µM] | TGI (UACC-62 melanoma) [µM] | TGI (MOLT-4 leukemia) [µM] | TGI (KM12 colon) [µM] | TGI (SF-268 CNS) [µM] | TGI (HOP-92 NSCLC) [µM] | TGI (TK-10 renal) [µM] | TGI (MDA-N) [µM] | GI50 (OVCAR-5 ovarian) [µM] | GI50 (KM12 colon) [µM] | GI50 (SF-268 CNS) [µM] | GI50 (BT-549 breast) [µM] | GI50 (RPMI-8226 leukemia) [µM] | GI50 (UACC-62 melanoma) [µM] | GI50 (MOLT-4 leukemia) [µM] | GI50 (HOP-92 NSCLC) [µM] | GI50 (TK-10 renal) [µM]
NC(CCOCCP(=O)(O)CCC1C=CC=CC1)C(=O)O (stereo not given) | > 100 | > 100 | > 100 | > 100 | > 100 | > 100 | > 100 | > 100 | > 100 | > 100 |  |  |  |  |  |  |  |  | 
CC[C@@]1(O)C(=O)OCc2c1cc1n(c2=O)Cc2cc3ccccc3nc2-1 | 2.6 | 1.04 | 0.765 | 0.0736 | 0.0445 | 5.61 | 4.01 | 0.131 | 51.2 |  | 0.111 | 0.292 | < 0.01 |  |  |  |  |  | 
C[Si](C)(C)c1ccc(-c2c3ccc(-c4cc(Br)cc(Br)c4)nc3nc3nc(-c4cc(Br)cc(Br)c4)ccc23)cc1 | > 100 | > 100 | > 100 | > 100 |  | > 100 | > 100 | > 100 | > 100 | > 100 |  |  |  |  |  |  |  |  | 
O=C1c2cccnc2C(=O)c2c1c(C(=O)OCCN1CCCCC1)c1ccccn21 | 2.16 | 2.02 | 0.95 | 0.069 | 2.21 | 9.02 | 0.365 | 0.285 | 0.43 |  | 0.198 | 0.16 | 0.0345 | 0.152 | 0.119 | 0.0121 | 0.162 | 0.0426 | 0.0978
Nc1ccc(O)c2c1C(=O)c1c(N)ccc(O)c1C2=O |  | > 100 | > 100 | > 100 | > 100 | > 100 | > 100 | > 100 | > 100 |  |  |  |  |  |  |  |  |  | 
NC(=O)C1CCCN1C(=O)C(N)Cc1ccccc1 (stereo not drawn) (H-Phe-Pro-NH2; configuration not given here) |  | > 100 | > 100 | > 100 | > 100 |  | > 100 |  | > 100 | > 100 |  |  |  |  |  |  |  |  | 
CN(CC(=O)O)Cc1c(O)c(Cl)cc(Cl)c1Cl | > 100 | > 100 | > 100 | 77.3 |  | > 100 | > 100 | > 100 | > 100 | > 100 |  |  |  |  |  |  |  |  | 
CC1C(=O)CC(c2cccs2)N(N=O)C1c1cccs1 (stereo not given) |  | > 100 | 67.2 | > 100 | 73.7 | > 100 | > 100 | 83.3 |  |  |  |  |  |  |  |  |  |  | 
CCc1n[nH]c(=O)n1/N=C(\C)c1ccc([N+](=O)[O-])cc1 | > 100 | > 100 | > 100 | > 100 | > 100 | > 100 | > 100 | > 100 | > 100 | > 100 |  |  |  |  |  |  |  |  | 
